{
  "source": "patent US20110189281A1",
  "about": "“TELMISARTAN AND HYDROCHLOROTHIAZIDE COMBINATION THERAPY” (BOEHRINGER INGELHEIM INTERNATIONAL GMBH, priority 2004, published 2011)",
  "origin": "cited, not measured here",
  "conditions": "physiological pH range of the gastrointestinal tract, pH 1 to 7; free acid form",
  "data": [
    {"smiles": "CCCc1nc2c(C)cc(-c3nc4ccccc4n3C)cc2n1Cc1ccc(-c2ccccc2C(=O)O)cc1", "note": "[Telmisartan, 4′-[(1,4′-dimethyl-2′-propyl-[2,6′-bi-1H-benzimidazol]-1′-yl)methyl]-[1,1′-biphenyl]-2-carboxylic acid]", "values": [
      {"measurement": "Solubility in aqueous systems", "result": "very poor solubility"}
    ]}
  ]
}
